The text below walks through data of US4870175A, “6-substituted alkoxy-2-oxo-1,2-dihydroquinoxaline derivatives” (Toyo Jozo Kabushiki Kaisha, priority 1987, dated 1989).

Where two headings read alike, the source gives them in different places.

In experiment [1] the test system is rabbit platelet-rich plasma. Kind of experiment: Platelet aggregation inhibition (rabbit platelet-rich plasma, aggregometer). It is filed as cell-based. The conditions noted are these: Oryctolagus cuniculus, compound final concentration 10 μM, read-out: Inhibitory ratio. On the procedure: (2) Platelet aggregation inhibition:
A rabbit platelet-rich plasma (5×10^5 /mm^3), to which was added 1/10 volume of a 3.8% sodium citrate solution, 216 μl, is incubated in an aggregometer at 37° C., 1000 rpm, for 3 mins. A test sample solution 12 μl (final concentration 10 μM) is added thereto and the mixture is further incubated for 3 mins., and collagen (aggregation agent) 2.5 μg/ml, ADP 2.5 μM, platelet activating factor (PAF) 0.05 μg/ml or 0.25 mM arachidonic acid (A.A.) 12 μl is added thereto as an aggregating agent, and the platelet aggregation activity is measured.

In experiment [2] the test system is cyclic AMP/phosphodiesterase. Kind of experiment: Inhibitory action of cyclic AMP/phosphodiesterase (crude enzyme fraction from sonicated rabbit platelets). Format: biochemical. Conditions: 40 min. The method, then: The pharmacological activity of the present compounds [1] is illustrated below. (1) Inhibitory action of cyclic AMP/phosphodiesterase:
A mixture of 2 mM MgCl2 /40 mM Tris-buffer (pH 7.5) 700 μl, enzyme solution (a crude enzyme fraction obtained from sonicated rabbit platelets) 100 μl, and a test sample solution (compound [1] dissolved in 50% aqueous methanol) 100 μl is incubated at 30° C. for 5 mins. 3', 5'-cyclic AMP 100 μl (50 μg) is added thereto and the mixture is further incubated for 40 mins. The reaction is stopped by heating 100° C. for 5 mins. The amount of 5'-AMP in the supernatant obtained by centrifugation at 3000 rpm for 5 mins. is measured using HPLC.
As shown in that table, the compound of the present invention has cyclic AMP/phosphodiesterase inhibitory activity at 1-10 μg/ml.

[3] abbreviates: aggregating agent PAF 0.05 μg/ml.
[4] abbreviates: aggregating agent arachidonic acid (A.A.) 0.25 mM.
Where [5] appears, read: aggregating agent collagen 2.5 μg/ml.

As to `CN(C(=O)CCCOc1ccc2[nH]c(=O)cnc2c1)C1CCCCC1` [Compound 896], the inhibition at 10 µM turned out to be 37.2% in experiment [1] (aggregating agent ADP 2.5 μM), 37.1% in experiment [1] (setting [3]), 31.1% in experiment [1] (setting [4]) and 59.2% in experiment [1] (setting [5]). The Inhibitory ratio is recorded as 25.5% in experiment [2] (1 μg/ml), 71.5% in experiment [2] (10 μg/ml) and 91.0% in experiment [2] (100 μg/ml).
On to `CCOC(=O)CCCOc1ccc2c(c1)NCC(=O)N2` [Compound 925, 6-(3-ethoxycarbonylpropoxy)-2-oxo-1,2,3,4-tetrahydroquinoxaline], for which the inhibition at 10 µM came to 56.5% in experiment [1] (aggregating agent ADP 2.5 μM), 29.5% in experiment [1] (setting [3]), 46.5% in experiment [1] (setting [4]) and 53.8% in experiment [1] (setting [5]). Moreover, the figures for the Inhibitory ratio in experiment [2] (1 μg/ml), in experiment [2] (10 μg/ml) and in experiment [2] (100 μg/ml) were 5.3%, 26.4% and 71.3%, respectively.
Consider `CCN(C(=O)CCCCOc1ccc2[nH]c(=O)cnc2c1)C1CCCCC1` [Compound 921], for which the inhibition at 10 µM in experiment [1] (aggregating agent ADP 2.5 μM) turned out to be 62.6%; in experiment [1] (setting [3]), 35.3%; in experiment [1] (setting [4]), 44.7%; in experiment [1] (setting [5]), 81%. Moreover, the Inhibitory ratio in experiment [2] (1 μg/ml) stood at 49.8%; in experiment [2] (10 μg/ml), 84.5%; in experiment [2] (100 μg/ml), 93.0%.
In the case of `CCOC(=O)CCCOc1ccc2[nH]c(=O)c(CC)nc2c1` [Compound 946], the inhibition at 10 µM was found to be 91.5% in experiment [1] (aggregating agent ADP 2.5 μM), 90.7% in experiment [1] (setting [3]), 85.1% in experiment [1] (setting [4]) and 79.2% in experiment [1] (setting [5]). The results for the Inhibitory ratio in experiment [2] (1 μg/ml) and in experiment [2] (10 μg/ml) were 78.7% and 92.5%, respectively.
Take `CCN(C(=O)CCCOc1ccc2[nH]c(=O)cnc2c1)C1CCCCC1` [Compound 915]: the inhibition at 10 µM amounted to 41% in experiment [1] (aggregating agent ADP 2.5 μM), 36% in experiment [1] (setting [3]), 30.4% in experiment [1] (setting [4]) and 63.2% in experiment [1] (setting [5]). The results for the Inhibitory ratio in experiment [2] (1 μg/ml), in experiment [2] (10 μg/ml) and in experiment [2] (100 μg/ml) were 37.2%, 77.7% and 85.1%, respectively.
Turning to `CN(C(=O)CCCCOc1ccc2[nH]c(=O)cnc2c1)C1CCCCC1` [Compound 920], the inhibition at 10 µM turned out to be 49.3% in experiment [1] (aggregating agent ADP 2.5 μM), 26.9% in experiment [1] (setting [3]), 30.2% in experiment [1] (setting [4]) and 52.5% in experiment [1] (setting [5]). Further, the Inhibitory ratio was determined as 42.9% in experiment [2] (1 μg/ml), 81.7% in experiment [2] (10 μg/ml) and 75.1% in experiment [2] (100 μg/ml).
Turning to `CCCc1nc2cc(OCCCC(=O)OCC)ccc2[nH]c1=O` [Compound 947], the inhibition at 10 µM amounted to 59.5% in experiment [1] (aggregating agent ADP 2.5 μM), 27.5% in experiment [1] (setting [3]), 19.6% in experiment [1] (setting [4]) and 39.5% in experiment [1] (setting [5]). Further, the results for the Inhibitory ratio in experiment [2] (1 μg/ml) and in experiment [2] (10 μg/ml) were 66.9% and 90.1%, respectively.
`CCOC(=O)CCCOc1ccc2[nH]c(=O)c(C)nc2c1` [Compound 945]: the inhibition at 10 µM in experiment [1] (setting [5]) is 54.2%. For the same compound, the Inhibitory ratio in experiment [2] (1 μg/ml) is reported as 44.3%; in experiment [2] (10 μg/ml) it was 83.5%; in experiment [2] (100 μg/ml) it was 88.9%.
On to `Cc1nc2cc(OCCCC(=O)N(CCO)C3CCCCC3)ccc2[nH]c1=O` [Compound 966], for which the inhibition at 10 µM in experiment [1] (setting [5]) stood at 83.5%. The Inhibitory ratio in experiment [2] (1 μg/ml) was found to be 54.5%; in experiment [2] (10 μg/ml), 86.6%; in experiment [2] (100 μg/ml) it was 93.7%.
As for `O=C1CNc2cc(OCCCCc3nnnn3C3CCCCC3)ccc2N1` [Compound 931, 6-[4-(1-cyclohexyltetrazole-5-yl)-butoxy]-2-oxo-1,2,3,4-tetrahydroquinoxaline], the inhibition at 10 µM in experiment [1] (setting [3]) came out at 44.3%; in experiment [1] (setting [4]), 34%; in experiment [1] (setting [5]), 65.2%. In addition, the Inhibitory ratio amounted to 25.3% in experiment [2] (1 μg/ml), 74.3% in experiment [2] (10 μg/ml) and 86.4% in experiment [2] (100 μg/ml).
For `O=C(CCCCOc1ccc2[nH]c(=O)cnc2c1)N(CCO)C1CCCCC1` [Compound 923], the inhibition at 10 µM in experiment [1] (aggregating agent ADP 2.5 μM) worked out at 68%; in experiment [1] (setting [3]), 29%; in experiment [1] (setting [4]) it was 56.7%; in experiment [1] (setting [5]), 75.7%. Moreover, the Inhibitory ratio is reported as 43.7% in experiment [2] (1 μg/ml), 81.8% in experiment [2] (10 μg/ml) and 92.4% in experiment [2] (100 μg/ml).
